Data on two compounds can be found in patent US10450278B2, “Substituted 2-thioxo-imidazolidin-4-ones and spiro analogues thereof, active anticancer ingredient, pharmaceutical composition, medicinal preparation, method for treating prostate cancer” (R-Pharm Overseas Inc., priority 2014, dated 2019).

By pIC50 is commonly meant the negative decadic logarithm of the IC50, by convention in mol/L. A higher pIC50 goes with a low IC50. Broadly, the pKi is the Ki on a negative log10 scale, so that one unit is a factor of ten. A low value points to a large Ki.

pIC50, pKi: −log10 of the molar value.

The target in the experiment is T1, androgen receptors (Homo sapiens, UniProt P10275, T878A).
T1 sequence (P10275 1-920 T878A): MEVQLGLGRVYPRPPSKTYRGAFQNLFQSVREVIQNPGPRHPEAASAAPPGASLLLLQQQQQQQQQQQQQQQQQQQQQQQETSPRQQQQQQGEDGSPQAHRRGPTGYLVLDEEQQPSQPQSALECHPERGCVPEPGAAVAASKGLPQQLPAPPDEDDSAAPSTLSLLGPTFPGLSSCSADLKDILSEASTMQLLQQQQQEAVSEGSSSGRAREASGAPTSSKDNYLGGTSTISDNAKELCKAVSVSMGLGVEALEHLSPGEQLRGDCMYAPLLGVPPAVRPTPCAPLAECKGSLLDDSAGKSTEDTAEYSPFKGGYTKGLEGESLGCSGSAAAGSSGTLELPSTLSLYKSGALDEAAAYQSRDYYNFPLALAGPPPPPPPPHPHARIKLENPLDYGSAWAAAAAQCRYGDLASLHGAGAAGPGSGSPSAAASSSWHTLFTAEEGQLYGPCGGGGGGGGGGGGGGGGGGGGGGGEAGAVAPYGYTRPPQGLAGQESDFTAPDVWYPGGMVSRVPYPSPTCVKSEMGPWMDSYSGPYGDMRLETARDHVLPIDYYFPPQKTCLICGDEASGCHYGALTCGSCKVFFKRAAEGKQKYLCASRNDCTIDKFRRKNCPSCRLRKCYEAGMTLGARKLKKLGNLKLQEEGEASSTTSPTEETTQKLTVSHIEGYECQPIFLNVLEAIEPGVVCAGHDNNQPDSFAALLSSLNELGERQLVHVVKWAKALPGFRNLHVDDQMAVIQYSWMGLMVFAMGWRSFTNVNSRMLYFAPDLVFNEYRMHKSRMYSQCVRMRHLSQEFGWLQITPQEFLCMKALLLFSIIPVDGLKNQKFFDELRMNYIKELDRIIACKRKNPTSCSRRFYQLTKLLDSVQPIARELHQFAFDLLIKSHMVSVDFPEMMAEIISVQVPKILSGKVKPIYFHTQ
Kind of experiment: cell-based. How it is done: Determination of antagonistic activity of the new compounds of general formula 1 and their analogues with respect to androgen receptors. The ability of the new compounds of general formula 1 and their analogues block androgen receptors is determined by their effectiveness ingbirovaniya sitmulirovannoy dihydrotestosterone expression of prostate-specific antigen (PSA) in the human prostate cancerous cells, LNCap, bank obtained from the American Tissue Culture (ATCC, USA). These cells are sensitive to 5-α-dihydrotestosterone (DHT) and produce cancerous marker (PSA) in its presence. […] Before experiments, the cells were washed and suspended in the same medium, where, however, calf serum was replaced with serum-treated to remove traces of charcoal hormones. Cells were dispensed at 100 1 (10 000 cells) in cell 96 lunochnoyh dies and left for 4 days in an incubator at […] (100% humidity) in an atmosphere of 95% air/5% CO2. […] Cells were allowed to stand for further 5 days under the same incubation conditions. Then nadkletochnoy environmental samples were taken for analysis on the content of the PSA. The analysis was performed according to the protocol recommended by the kit manufacturer to determine the PSA (Alpha Diagnostic International, USA). After wetting holes on the bottom affixed containing antibodies against PSA, they added 25 ul of samples and then 100 µL of antibodies as anti-PSA, which konyugtrovana horseradish peroxidase. After a 30 minute incubation at room temperature, the wells were removed, the wells were washed several times and poured into the wells, 100 ul of a chromogenic peroxidase substrate. Plates were incubated for 15 minutes at room temperature, the wells were added 50 mcl of stop solution and the intensity of color which developed was measured by absorbance at 450 nm. The intensity of the absorption is proportional to the concentration of PSA in the sample. […] 1.

In the case of `CNC(=O)c1ccc(N2C(=S)N(c3ccc(C#N)c(C(F)(F)F)c3)C(=O)[C@@]2(C)COC)cc1F` [II], the pIC50 is 6.84 and the pKi is 7.46.
As to `CNC(=O)c1ccc(N2C(=S)N(c3ccc(C#N)c(C(F)(F)F)c3)C(=O)[C@]23CCOC3)cc1F` [IV], the pIC50 is 7.08 and the pKi was 7.70.
